Measured values from ChEMBL document CHEMBL6109153, “Development of Membrane-Targeting Osthole Derivatives Containing Pyridinium Quaternary Ammonium Moieties with Potent Anti-Methicillin-Resistant Staphylococcus aureus Properties” (J Med Chem, 2025).
Active and inactive are the calls of the source. No cut-off for these calls is given here.

Key:
[1] = Toxicity in BALB/c mouse model of Sepsis infected with methicillin-resistant Staphylococcus aureus M11 assessed as pathological change in kidney at 4 to 8 mg/kg measured after 24 hrs by H and E staining based analysis; assay type: organism-based; settings: in vivo, dose 4-8 mg/kg
[2] = system: Staphylococcus aureus; test: Antibacterial activity against methicillin-resistant Staphylococcus aureus M11 infected in BALB/c mouse model of Sepsis assessed as reduction in swelling in inner epidermal abscesses at 4 mg/kg measured after 24 hrs; assay type: functional, organism-based
[3] = Toxicity in BALB/c mouse model of Sepsis infected with methicillin-resistant Staphylococcus aureus M11 assessed as lesions in kidney at 4 to 8 mg/kg measured after 24 hrs by H and E staining based analysis; assay type: organism-based; settings: in vivo, dose 4-8 mg/kg
[4] = system: Staphylococcus aureus; test: Antibacterial activity against methicillin-resistant Staphylococcus aureus M21 incubated for 16 to 20 hrs by broth microdilution method; assay type: functional; settings: time 16-20 hrs
[5] = system: Staphylococcus aureus; test: Disruption of cell membrane in methicillin-resistant Staphylococcus aureus M11 assessed as cell membrane rupture at 4 ug/ml incubated for 4 hrs by SEM analysis; assay type: functional, organism-based; settings: dose 4.0 µg/ml
[6] = system: Staphylococcus aureus; test: Disruption of cell membrane in methicillin-resistant Staphylococcus aureus M11 assessed as wrinkling in cell membrane at 4 ug/ml incubated for 4 hrs by SEM analysis; assay type: functional, organism-based; settings: dose 4.0 µg/ml
[7] = system: Staphylococcus aureus; test: Antibacterial activity against methicillin-resistant Staphylococcus aureus M11 infected in BALB/c mouse model of Sepsis assessed as reduction in bacterial load in skin tissues at 4 mg/kg measured after 24 hrs; assay type: functional
[8] = system: Staphylococcus aureus; test: Antibacterial activity against methicillin-resistant Staphylococcus aureus M11 infected in BALB/c mouse model of Sepsis assessed as reduction in TNF-alpha level measured after 24 hrs; assay type: functional, organism-based; settings: dose 4-8 mg/kg
[9] = system: Staphylococcus aureus; test: Antibacterial activity against methicillin-resistant Staphylococcus aureus M13 incubated for 16 to 20 hrs by broth microdilution method; assay type: functional; settings: time 16-20 hrs
[10] = Toxicity in BALB/c mouse model of Sepsis infected with methicillin-resistant Staphylococcus aureus M11 assessed as pathological change in spleen at 4 to 8 mg/kg measured after 24 hrs by H and E staining based analysis; assay type: organism-based; settings: in vivo, dose 4-8 mg/kg
[11] = Toxicity in BALB/c mouse assessed as glossy fur at 5 to 40 mg/kg, ip measured for 7 days; assay type: organism-based; settings: in vivo, 168 h, dose 5-40 mg/kg, time 7 day
[12] = system: Staphylococcus aureus; test: Antibacterial activity against methicillin-resistant Staphylococcus aureus M23 incubated for 16 to 20 hrs by broth microdilution method; assay type: functional; settings: time 16-20 hrs
[13] = system: Staphylococcus aureus; test: Antibacterial activity against methicillin-resistant Staphylococcus aureus M16 incubated for 16 to 20 hrs by broth microdilution method; assay type: functional; settings: time 16-20 hrs
[14] = system: Staphylococcus aureus; test: Antibacterial activity against methicillin-resistant Staphylococcus aureus M11 infected in BALB/c mouse model of Sepsis assessed as smooth in inner epidermis at 8 mg/kg measured after 24 hrs; assay type: functional, organism-based
[15] = system: Staphylococcus aureus; test: Antibacterial activity against methicillin-resistant Staphylococcus aureus M11 incubated for 16 to 20 hrs by broth microdilution method; assay type: functional; settings: time 16-20 hrs
[16] = Toxicity in BALB/c mouse model of Sepsis infected with methicillin-resistant Staphylococcus aureus M11 assessed as lesions in heart at 4 to 8 mg/kg measured after 24 hrs by H and E staining based analysis; assay type: organism-based; settings: in vivo, dose 4-8 mg/kg
[17] = system: Staphylococcus aureus; test: Antibacterial activity against methicillin-resistant Staphylococcus aureus M11 infected in BALB/c mouse model of Sepsis assessed as reduction in redness in inner epidermal abscesses at 4 mg/kg measured after 24 hrs; assay type: functional, organism-based
[18] = Toxicity in BALB/c mouse assessed as adverse reactions at 5 to 40 mg/kg, ip measured for 7 days; assay type: organism-based; settings: in vivo, 168 h, dose 5-40 mg/kg, time 7 day
[19] = Toxicity in BALB/c mouse assessed as normal behavior at 5 to 40 mg/kg, ip measured for 7 days; assay type: organism-based; settings: in vivo, 168 h, dose 5-40 mg/kg, time 7 day
[20] = Toxicity in BALB/c mouse assessed as normal appetite at 5 to 40 mg/kg, ip measured for 7 days; assay type: organism-based; settings: in vivo, 168 h, dose 5-40 mg/kg, time 7 day
[21] = system: Staphylococcus aureus; test: Antibacterial activity against methicillin-resistant Staphylococcus aureus M11 upto 128 ug/ml in presence of phosphatidylethanolamine incubated for 16 to 18 hrs; assay type: functional, organism-based; settings: dose <= 128.0 µg/ml, time 16-18 hrs
[22] = system: Staphylococcus aureus; test: Antibacterial activity against methicillin-resistant Staphylococcus aureus M11 infected in BALB/c mouse model of Sepsis assessed as reduction in abscess size on back at 4 mg/kg measured after 24 hrs; assay type: functional, organism-based
[23] = system: Staphylococcus aureus; test: Antibacterial activity against methicillin-resistant Staphylococcus aureus M11 infected in BALB/c mouse model of Sepsis assessed as reduction in IL-6 level measured after 24 hrs; assay type: functional, organism-based; settings: dose 4-8 mg/kg
[24] = system: Staphylococcus aureus; test: Antibacterial activity against methicillin-resistant Staphylococcus aureus M11 infected in BALB/c mouse model of Sepsis assessed as reduction in bacterial load in skin tissues at 8 mg/kg measured after 24 hrs; assay type: functional
[25] = system: Staphylococcus aureus; test: Bactericidal activity against methicillin-resistant Staphylococcus aureus M11 at 8 ug/ml measured up to 6 hrs in presence of 50% plasma; assay type: functional, organism-based; settings: dose 8.0 µg/ml
[26] = system: Staphylococcus aureus; test: Disruption of cell membrane in methicillin-resistant Staphylococcus aureus M11 assessed as shrinkage in cell membrane at 4 ug/ml incubated for 4 hrs by SEM analysis; assay type: functional, organism-based; settings: dose 4.0 µg/ml
[27] = system: Staphylococcus aureus; test: Induction of cell permeability in methicillin-resistant Staphylococcus aureus M11 assessed as fold increase in fluorescence intensity at 32 times MIC by SYTOX Green dye based analysis relative to control; assay type: functional
[28] = system: Staphylococcus aureus; test: Induction of ROS production in methicillin-resistant Staphylococcus aureus M11 assessed as fold increase at 32 ug/ml incubated for 1 hr by DCFH-DA probe based analysis relative to control; assay type: functional; settings: dose 32 µg/ml
[29] = system: Staphylococcus aureus; test: Antibacterial activity against methicillin-resistant Staphylococcus aureus M11 up to 128 ug/ml in presence of 128 ug/ml peptidoglycan incubated for 16 to 18 hrs; assay type: functional; settings: dose <= 128 µg/ml, time 16-18 hrs
[30] = system: Staphylococcus aureus; test: Antibacterial activity against methicillin-resistant Staphylococcus aureus M11 infected in BALB/c mouse model of Sepsis assessed as reduction in bacterial count in skin tissues at 4 mg/kg measured after 24 hrs relative to control; assay type: functional; parameters: scale not given: the % may be the effect or the level left
[31] = system: Staphylococcus aureus; test: Induction of bacterial eradication in methicillin-resistant Staphylococcus aureus M11 at 8 times MIC incubated for 4 hrs by time-kill assay; assay type: functional, organism-based
[32] = system: Staphylococcus aureus; test: Antibacterial activity against methicillin-resistant Staphylococcus aureus M11 infected in BALB/c mouse model of Sepsis measured after 24 hrs; assay type: functional, organism-based; settings: dose 4-8 mg/kg
[33] = system: Staphylococcus aureus; test: Antibacterial activity against methicillin-resistant Staphylococcus aureus M17 incubated for 16 to 20 hrs by broth microdilution method; assay type: functional; settings: time 16-20 hrs
[34] = system: Staphylococcus aureus; test: Antibacterial activity against methicillin-resistant Staphylococcus aureus M20 incubated for 16 to 20 hrs by broth microdilution method; assay type: functional; settings: time 16-20 hrs
[35] = system: Staphylococcus aureus; test: Disruption of cell membrane in methicillin-resistant Staphylococcus aureus M11 assessed as roughness in cell membrane at 4 ug/ml incubated for 4 hrs by SEM analysis; assay type: functional, organism-based; settings: dose 4.0 µg/ml
[36] = system: Staphylococcus aureus; test: Disruption of cell membrane in methicillin-resistant Staphylococcus aureus M11 assessed as increase in red fluorescence in nuclei at 4 ug/ml incubated for 4 hrs by DAPI/PI staining based analysis; assay type: functional, organism-based; settings: dose 4.0 µg/ml
[37] = system: Staphylococcus aureus; test: Antibacterial activity against methicillin-resistant Staphylococcus aureus M11 infected in BALB/c mouse model of Sepsis assessed as restoration of smoothness in outer skin at 8 mg/kg measured after 24 hrs; assay type: functional, organism-based

Structure (SMILES)	Activity [1]	Activity [2]	Activity [3]	MIC [4]	Activity [5]	Activity [6]	Activity [7]	Activity [8]	MIC [9]	Activity [10]	Activity [11]	MIC [12]	MIC [13]	Activity [14]	MIC [15]	Activity [16]	Activity [17]	Activity [18]	Activity [19]	Activity [20]	also measured
CCCCCNC(=O)C[n+]1ccc(SCCCCCOc2ccc3ccc(=O)oc3c2CC=C(C)C)cc1.[Br-]	Non-toxic	Active	Non-toxic	0.5 µg/mL	Active	Active	1.882 log10CFU/g	Dose-dependent-effect; Compound Has Slightly Greater Efficacy Than Vancomycin	1 µg/mL	Non-toxic	Non-toxic	0.5 µg/mL	0.5 µg/mL	Active	0.5 µg/mL	Non-toxic	Active	Non-toxic	Non-toxic	Non-toxic	Activity [21]: Active; Compound Showed Only Minor Or No Change In Mic; Activity [22]: Active; Activity [23]: Dose-dependent-effect; Compound Has Slightly Greater Efficacy Than Vancomycin; Activity [24]: 3.828 log10CFU/g; Activity [25]: Active; Activity [26]: Active; fold change (FC) [27]: ~10; fold change (FC) [28]: 1.8; MIC [29]: 16 µg/mL; Activity [30]: 98.702%; Activity [31]: Active; Activity [32]: Dose-dependent-effect; MIC [33]: 0.5 µg/mL; MIC [34]: 0.5 µg/mL; Activity [35]: Active; Activity [36]: Active; Activity [37]: Active
CC(C)=CCc1c(OCCCCSc2cc[n+](CC(=O)N(CC(C)C)CC(C)C)cc2)ccc2ccc(=O)oc12.[Br-]	Non-toxic	Active	Non-toxic	0.5 µg/mL	Active	Active	1.948 log10CFU/g	Dose-dependent-effect; Compound Has Slightly Greater Efficacy Than Vancomycin	1 µg/mL	Non-toxic	Non-toxic	0.5 µg/mL	0.5 µg/mL	Active	0.5 µg/mL	Non-toxic	Active	Non-toxic	Non-toxic	Non-toxic	Activity [21]: Active; Compound Showed Only Minor Or No Change In Mic; Activity [22]: Active; Activity [23]: Dose-dependent-effect; Compound Has Slightly Greater Efficacy Than Vancomycin; Activity [24]: 4.252 log10CFU/g; Activity [25]: Active; Activity [26]: Active; fold change (FC) [27]: ~10; fold change (FC) [28]: 2; MIC [29]: 16 µg/mL; Activity [30]: 98.886%; Activity [31]: Active; Activity [32]: Dose-dependent-effect; MIC [33]: 0.5 µg/mL; MIC [34]: 0.5 µg/mL; Activity [35]: Active; Activity [36]: Active; Activity [37]: Active
